Test results as given in patent US10059741B2 (priority 2015, dated 2018).
Like-named read-outs stand apart in the source and are kept apart here. Bridge positions count the residues as written; N and C are the ends. Square brackets hold non-standard residues; d marks the D form. Peptide text beside a SMILES is read from it. R8 = C=CCCCCCC[C@@](C)(N)C(=O)O; S5 = C=CCCC[C@](C)(N)C(=O)O; Nle = CCCC[C@H](N)C(=O)O; Aib = CC(C)(N)C(=O)O

Assays:
[1] = system: H1N1 California/07/2009; assay: microbe, parasite or virus in culture; type: cell-based, influenza A virus
[2] = system: H3N2 Perth/16/2009; assay: microbe, parasite or virus in culture; type: cell-based, influenza A virus
[3] = system: H1N1 California/07/2009; assay: microbe, parasite or virus in culture; type: cell-based, influenza A virus; remark: listed apart in the source
[4] = system: H3N2 Perth/16/2009; assay: microbe, parasite or virus in culture; type: cell-based, influenza A virus; remark: listed apart in the source
[5] = system: H1N1 A/Solomon Island/03/2006; type: cell-based, influenza A virus; conditions: read-out: EC50
[6] = system: H5N1 A/Hong Kong/213/2003; assay: microbe, parasite or virus in culture; type: cell-based, influenza A virus; conditions: read-out: EC50
[7] = system: H7N9 A/Anhui/1/2013; assay: microbe, parasite or virus in culture; type: cell-based, influenza A virus; conditions: read-out: EC50
[8] = system: influenza virus, various viral strains; assay: organism not typed; type: cell-based; conditions: read-out: EC50
[9] = in vitro; conditions: dog
[10] = read-out: EC50 (μM) H1N1 California/07/2009
[11] = read-out: EC50 (μM) H3N2 Perth/16/2009
[12] = CC50 (μM) H1N1 California/07/2009, Cell cytotoxicity (CC), run with H1N1 California/07/2009
[13] = CC50 (μM) H3N2 Perth/16/2009, Cell cytotoxicity (CC), run with H3N2 Perth/16/2009
[14] = CC50, run with Influenza A H1N1 A/Solomon Is./3/2006-M, Neutral Red
[15] = CC50, run with Influenza A H1N1 A/Solomon Is./3/2006-M, Visual
[16] = CC50, run with Influenza A H1N1 California/07/20/09 (so in the source), later run, Neutral Red
[17] = CC50, run with Influenza A H1N1 California/07/20/09 (so in the source), Visual/Neutral Red
[18] = CC50, run with Influenza A H1N1 California/07/2009, Neutral Red
[19] = CC50, run with Influenza A H1N1 California/07/2009, Visual
[20] = CC50, run with Influenza A H3N2 Perth/16/2006 (so in the source), Neutral Red
[21] = CC50, run with Influenza A H3N2 Perth/16/2006 (so in the source), Visual
[22] = CC50, run with Influenza A H3N2 Perth/16/2009, last run, Neutral Red
[23] = CC50, run with Influenza A H3N2 Perth/16/2009, Visual/Neutral Red
[24] = Cytopathic effect/toxicity (Visual), MDCK cells, read-out: EC50 (μM) H1N1 California/07/2009
[25] = Influenza A H1N1 California/07/2009, Drug Assay Visual, read-out: EC50
[26] = Cytopathic effect/toxicity (Visual), MDCK cells, read-out: EC50 (μM) H3N2 Perth/16/2009
[27] = Influenza A H3N2 Perth/16/2006 (so in the source), Drug Assay Visual, read-out: EC50
[28] = Cytopathic effect/toxicity (Neutral red), MDCK cells, read-out: EC50 (μM) H1N1 California/07/2009
[29] = Influenza A H1N1 California/07/20/09 (so in the source), later run, Drug Assay Neutral Red, read-out: EC50
[30] = Influenza A H1N1 California/07/20/09 (so in the source), Drug Assay Visual/Neutral Red
[31] = Influenza A H1N1 California/07/2009, Drug Assay Neutral Red, read-out: EC50
[32] = Cytopathic effect/toxicity (Neutral red), MDCK cells, read-out: EC50 (μM) H3N2 Perth/16/2009
[33] = Influenza A H3N2 Perth/16/2006 (so in the source), Drug Assay Neutral Red, read-out: EC50
[34] = Influenza A H3N2 Perth/16/2009, last run, Drug Assay Neutral Red, read-out: EC50
[35] = Influenza A H3N2 Perth/16/2009, Drug Assay Visual/Neutral Red
[36] = Influenza A H1N1 A/Solomon Is./3/2006-M, Drug Assay Neutral Red
[37] = Influenza A H1N1 A/Solomon Is./3/2006-M, Drug Assay Visual

## CCCC[C@H](NC(C)=O)C(=O)N[C@@H](CC(=O)O)C(=O)N[C@H](C(=O)N[C@@H](CC(N)=O)C(=O)N[C@@]1(C)CCCC=CCCC[C@@](C)(C(=O)N[C@@H](CC(C)C)C(=O)N[C@@H](C)C(=O)N[C@H](C(=O)N[C@@H](CCC(N)=O)C(=O)N[C@@H](C)C(=O)N[C@@H](C)C(=O)NC(C)(C)C(=O)N[C@@H](C)C(N)=O)C(C)C)NC(=O)[C@H](CC(C)C)NC(=O)[C@H](CC(C)C)NC(=O)[C@H]([C@@H](C)O)NC1=O)C(C)C [SP-22] (Ac-[Nle]DVN[S5]TLL[S5]LAVQAA[Aib]A-NH2; staple 5-9)
[1]; read-out: EC50
  EC50: 1.8 µM
[1]; [10]
  EC50: 1.5 to 10 µM
[2]; read-out: EC50
  EC50: 0.54 µM
[2]; [11]
  EC50: < 1.5 µM
[3]
  EC90: 6.5 µM
[3]; [10]
  EC50: 1.5 to 10 µM
[4]
  EC90: 59 µM
[4]; [11]
  EC50: < 1.5 µM
[5]
  EC50: 29 µM
[6]
  EC50: > 50 µM
[7]
  EC50: 13 µM
[8]
  EC50: 12 µM
[9]; CC50
  CC50: > 50 µM
[9]; [12]
  CC50: > 100 µM
[9]; [13]
  CC50: > 100 µM
[9]; [14]
  CC50: > 100 µM
[9]; [15]
  CC50: > 100 µM
[9]; [16]
  CC50: > 100 µM
[9]; [17]
  CC50: > 100 µM
[9]; [18]
  CC50: > 100 µM
[9]; [19]
  CC50: > 100 µM
[9]; [20]
  CC50: > 100 µM
[9]; [21]
  CC50: > 100 µM
[9]; [22]
  CC50: > 100 µM
[9]; [23]
  CC50: > 100 µM

## CCCC[C@H](NC(C)=O)C(=O)N[C@@H](CC(=O)O)C(=O)N[C@H](C(=O)N[C@@H](CC(N)=O)C(=O)N[C@]1(C)CCCCCCC=CCCC[C@@](C)(C(=O)N[C@@H](C)C(=O)N[C@@H](C)C(=O)N[C@@H](C)C(=O)N[C@@H](C)C(=O)N[C@@H](C)C(N)=O)NC(=O)[C@H](C)NC(=O)[C@H](CC(C)C)NC(=O)[C@H](Cc2ccccc2)NC(=O)[C@H](CC(C)C)NC(=O)[C@H](CC(C)C)NC(=O)[C@H]([C@@H](C)O)NC1=O)C(C)C [SP-25] (Ac-[Nle]DVN[R8]TLLFLA[S5]AAAAA-NH2; staple 5-12)
[1]; [24]
  EC50: < 1.5 µM
[1]; [25]
  EC50: 0.57 µM
[2]; [26]
  EC50: < 1.5 µM
[2]; [27]
  EC50: 0.34 µM
[3]; [28]
  EC50: < 1.5 µM
[3]; [29]
  EC50: 6.6 µM
[3]; [30]
  EC90: 8.2 µM
[3]; [31]
  EC50: 1.1 µM
[4]; [32]
  EC50: < 1.5 µM
[4]; [33]
  EC50: 0.43 µM
[4]; [34]
  EC50: 49 µM
[4]; [35]
  EC90: 49 µM
[5]; [36]
  EC50: 6.5 µM
[6]
  EC50: > 50 µM
[7]
  EC50: 33 µM
[8]; [37]
  EC50: 3.6 µM
[9]; CC50
  CC50: > 50 µM
[9]; [12]
  CC50: > 100 µM
[9]; [13]
  CC50: > 100 µM
[9]; [14]
  CC50: > 100 µM
[9]; [15]
  CC50: > 100 µM
[9]; [16]
  CC50: > 100 µM
[9]; [17]
  CC50: > 100 µM
[9]; [18]
  CC50: > 100 µM
[9]; [19]
  CC50: > 100 µM
[9]; [20]
  CC50: > 100 µM
[9]; [21]
  CC50: > 100 µM
[9]; [22]
  CC50: > 100 µM
[9]; [23]
  CC50: > 100 µM

## CCCC[C@H](NC(C)=O)C(=O)N[C@@H](CC(=O)O)C(=O)N[C@H](C(=O)N[C@@H](CC(N)=O)C(=O)N[C@]1(C)CCCCCCC=CCCC[C@@](C)(C(=O)N[C@@H](CCC(N)=O)C(=O)N[C@@H](C)C(=O)N[C@@H](C)C(=O)N[C@@H](C)C(=O)N[C@@H](C)C(N)=O)NC(=O)[C@H](C)NC(=O)[C@H](CC(C)C)NC(=O)[C@H](Cc2ccccc2)NC(=O)[C@H](CC(C)C)NC(=O)[C@H](CC(C)C)NC(=O)[C@H]([C@@H](C)O)NC1=O)C(C)C [SP-27] (Ac-[Nle]DVN[R8]TLLFLA[S5]QAAAA-NH2; staple 5-12)
[1]; [24]
  EC50: < 1.5 µM
[1]; [25]
  EC50: 0.57 µM
[2]; [26]
  EC50: < 1.5 µM
[2]; [27]
  EC50: 0.32 µM
[3]; [28]
  EC50: < 1.5 µM
[3]; [29]
  EC50: 8.7 µM
[3]; [30]
  EC90: 8 µM
[3]; [31]
  EC50: 0.44 µM
[4]; [32]
  EC50: 1.5 to 10 µM
[4]; [33]
  EC50: 1.7 µM
[4]; [34]
  EC50: 35 µM
[4]; [35]
  EC90: 35 µM
[5]; [36]
  EC50: 75 µM
[6]
  EC50: > 50 µM
[7]
  EC50: 9.6 µM
[8]; [37]
  EC50: 32 µM
[9]; CC50
  CC50: > 50 µM
[9]; [12]
  CC50: > 100 µM
[9]; [13]
  CC50: > 100 µM
[9]; [14]
  CC50: > 100 µM
[9]; [15]
  CC50: > 100 µM
[9]; [16]
  CC50: > 100 µM
[9]; [17]
  CC50: > 100 µM
[9]; [18]
  CC50: > 100 µM
[9]; [19]
  CC50: > 100 µM
[9]; [20]
  CC50: > 100 µM
[9]; [21]
  CC50: > 100 µM
[9]; [22]
  CC50: > 100 µM
[9]; [23]
  CC50: > 100 µM
